Measurements as given in patent US20240101570A1 (AMGEN INC., priority 2020, published 2024).
Like-named read-outs stand apart in the source and are kept apart here.

Key:
HCT116 MTAP null cells = experiment: HCT116 MTAP null cell proliferation / viability (CellTiter-Glo, 6 days); format: cell-based; conditions: HCT116-MTAP null, 144 h, read-out: HCT-116 MTAP null IC50
How it was run: (§1)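 CellTiter-Glo luminescence, 6-day exposure, RPMI 1640 + 10% FBS. Dosing: 1:3 series (8-9 pts, top 1 or 10 μM) or 1:2 series (22 pts, top 10 or 50 μM), DMSO control. IC50 = 50% of control via curve fit.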

HCT116 WT cells = experiment: HCT116 WT cell proliferation / viability (CellTiter-Glo, 6 days); format: cell-based; conditions: Homo sapiens, HCT-116, 144 h, read-out: HCT-116 WT IC50
How it was run: as §1

[1] = HCT116 MTAP null cells, 6 days, CellTiter-Glo
[2] = HCT116 WT cells, 6 days, CellTiter-Glo

IC50 (HCT116 MTAP null cells; [1]) | IC50 (HCT116 WT cells; [2]) | SMILES | IC50 (HCT116 MTAP null cells) | IC50 (HCT116 WT cells)
5 nM | 114 nM | Cn1ncc2c(N)nc3cc(F)c(C(=O)N(Cc4ccc(C(F)(F)F)cn4)C4CCC4)cc3c21 [Example 807, 4-amino-N-cyclobutyl-7-fluoro-1-methyl-N-((5-(trifluoromethyl)-2-pyridinyl)methyl)-1H-pyrazolo[4,3-c]quinoline-8-carboxamide] |  | 
52 nM | 3130 nM | Cn1ncc2c3cc(C(=O)N(Cc4ccc(C(F)(F)F)cn4)C4CC4)c(Cl)cc3nc(N)c21 [Example 808, 4-amino-7-chloro-N-cyclopropyl-3-methyl-N-((5-(trifluoromethyl)-2-pyridinyl)methyl)-3H-pyrazolo[3,4-c]quinoline-8-carboxamide] |  | 
31 nM | 1790 nM | Cn1ncc2c(N)nc3cc(F)c(C(=O)N(Cc4ncc(C(F)(F)F)cc4F)C4CC4)cc3c21 [Example 809, 4-amino-N-cyclopropyl-7-fluoro-N-((3-fluoro-5-(trifluoromethyl)-2-pyridinyl)methyl)-1-methyl-1H-pyrazolo[4,3-c]quinoline-8-carboxamide] |  | 
226 nM | 13800 nM | CN(Cc1ccc(C(F)(F)F)cn1)C(=O)c1cc2c(cc1C(F)(F)F)nc(N)c1cnn(C)c12 [Example 810, 4-amino-N,1-dimethyl-7-(trifluoromethyl)-N-((5-(trifluoromethyl)-2-pyridinyl)methyl)-1H-pyrazolo[4,3-c]quinoline-8-carboxamide] |  | 
645 nM | > 50000 nM | CN(Cc1ccc(C(F)(F)F)nn1)C(=O)c1cc2c(cc1C(F)(F)F)nc(N)c1cnn(C)c12 [Example 811, 4-amino-N,1-dimethyl-7-(trifluoromethyl)-N-((6-(trifluoromethyl)-3-pyridazinyl)methyl)-1H-pyrazolo[4,3-c]quinoline-8-carboxamide] |  | 
237 nM | 14100 nM | Cn1ncc2c(N)nc3cc(C(F)(F)F)c(C(=O)N(Cc4ccc(C(F)(F)F)cn4)C4CC4)cc3c21 [Example 812, 4-amino-N-cyclopropyl-1-methyl-7-(trifluoromethyl)-N-((5-(trifluoromethyl)-2-pyridinyl)methyl)-1H-pyrazolo[4,3-c]quinoline-8-carboxamide] |  | 
676 nM | 29300 nM | Cn1ncc2c(N)nc3cc(C(F)(F)F)c(C(=O)N(Cc4ccc(C(F)(F)F)nn4)C4CC4)cc3c21 [Example 813, 4-amino-N-cyclopropyl-1-methyl-7-(trifluoromethyl)-N-((6-(trifluoromethyl)-3-pyridazinyl)methyl)-1H-pyrazolo[4,3-c]quinoline-8-carboxamide] |  | 
44 nM | 1170 nM | C[C@H](C1CC1)N(Cc1ccc(C(F)(F)F)nn1)C(=O)c1cc2c3c(c(N)nc2cc1F)COC3 [Example 814, 4-amino-N-((1R)-1-cyclopropylethyl)-7-fluoro-N-((6-(trifluoromethyl)-3-pyridazinyl)methyl)-1,3-dihydrofuro[3,4-c]quinoline-8-carboxamide] |  | 
18 nM | 301 nM | C[C@@H](C1CC1)N(Cc1ccc(C(F)(F)F)nn1)C(=O)c1cc2c3c(c(N)nc2cc1F)COC3 [Example 815, 4-amino-N-((1S)-1-cyclopropylethyl)-7-fluoro-N-((6-(trifluoromethyl)-3-pyridazinyl)methyl)-1,3-dihydrofuro[3,4-c]quinoline-8-carboxamide] |  | 
78 nM | 2490 nM | Nc1nc2cc(F)c(C(=O)N(Cc3ccc(OCC(F)(F)F)nn3)CC3CC3)cc2c2c1COC2 [Example 816, 4-amino-N-(cyclopropylmethyl)-7-fluoro-N-((6-(2,2,2-trifluoroethoxy)-3-pyridazinyl)methyl)-1,3-dihydrofuro[3,4-c]quinoline-8-carboxamide] |  | 
28 nM | 689 nM | Cn1ncc2c3cc(C(=O)N(Cc4ccc(OCC(F)(F)F)nn4)CC4CC4)c(F)cc3nc(N)c21 [Example 817, 4-amino-N-(cyclopropylmethyl)-7-fluoro-3-methyl-N-((6-(2,2,2-trifluoroethoxy)-3-pyridazinyl)methyl)-3H-pyrazolo[3,4-c]quinoline-8-carboxamide] |  | 
7 nM | 161 nM | C[C@H]1OCc2c1c(N)nc1cc(F)c(C(=O)N(Cc3ccc(OCC(F)(F)F)nn3)CC3CC3)cc21 [Example 818, (3R)-4-amino-N-(cyclopropylmethyl)-7-fluoro-3-methyl-N-((6-(2,2,2-trifluoroethoxy)-3-pyridazinyl)methyl)-1,3-dihydrofuro[3,4-c]quinoline-8-carboxamide] |  | 
62 nM | 1340 nM | Cn1cc(N(Cc2ccc(C(F)(F)F)cc2)C(=O)c2cc3c4c(c(N)nc3cn2)COC4)cn1 [Example 882, 4-amino-N-(1-methyl-1H-pyrazol-4-yl)-N-(4-(trifluoromethyl)benzyl)-1,3-dihydrofuro[3,4-c][1,7]naphthyridine-8-carboxamide 2,2,2-trifluoroacetate] |  | 
20 nM | 514 nM | Nc1nc2ccc(C(=O)N(Cc3ccc(C(F)(F)F)cn3)c3cccc(F)c3)cc2c2c1COC2 [Example 883, 4-amino-N-(3-fluorophenyl)-N-((5-(trifluoromethyl)-2-pyridinyl)methyl)-1,3-dihydrofuro[3,4-c]quinoline-8-carboxamide] |  | 
27 nM | 733 nM | Cn1cc(N(Cc2ccc(C(F)(F)F)cn2)C(=O)c2ccc3nc(N)c4c(c3c2)COC4)cn1 [Example 884, 4-amino-N-(1-methyl-1H-pyrazol-4-yl)-N-((5-(trifluoromethyl)-2-pyridinyl)methyl)-1,3-dihydrofuro[3,4-c]quinoline-8-carboxamide] |  | 
25 nM | 596 nM | Cn1cc(N(Cc2ccc(C(F)(F)F)cn2)C(=O)c2cc3c4c(c(N)nc3cn2)COC4)cn1 [Example 885, 4-amino-N-(1-methyl-1H-pyrazol-4-yl)-N-((5-(trifluoromethyl)-2-pyridinyl)methyl)-1,3-dihydrofuro[3,4-c][1,7]naphthyridine-8-carboxamide] |  | 
1690 nM | > 10000 nM | Cn1cc(N(Cc2ccc(C(F)(F)F)cn2)C(=O)c2cnc3nc(N)c4c(c3c2)COC4)cn1 [Example 886, 4-amino-N-(1-methyl-1H-pyrazol-4-yl)-N-((5-(trifluoromethyl)-2-pyridinyl)methyl)-1,3-dihydrofuro[3,4-c][1,8]naphthyridine-8-carboxamide] |  | 
25 nM | 496 nM | C[C@H](c1ncccn1)N(Cc1ccc(C(F)(F)F)cn1)C(=O)c1ccc2nc(N)c3c(c2c1)CCOC3 [Example 887, 5-amino-N-[(1R)-1-pyrimidin-2-ylethyl]-N-[[5-(trifluoromethyl)-2-pyridyl]methyl]-2,4-dihydro-1H-pyrano[3,4-c]quinoline-9-carboxamide] |  | 
21 nM | 231 nM | C[C@H](c1ncccn1)N(Cc1ccc(C(F)(F)F)cn1)C(=O)c1ccc2nc(N)c3c(c2c1)OCC3 [Example 888, 4-amino-N-[(1R)-1-pyrimidin-2-ylethyl]-N-[[5-(trifluoromethyl)-2-pyridyl]methyl]-2,3-dihydrofuro[3,2-c]quinoline-8-carboxamide] |  | 
 |  | CC(C)CN(Cc1ccc(C(F)(F)F)cn1)C(=O)c1ccc2nc(N)c3c(c2c1)COC3(C)C [Example 889] | 202 nM | 4740 nM
14 nM | 156 nM | CC1OCc2c1c(N)nc1ccc(C(=O)N(Cc3ccc(C(F)(F)F)cn3)Cc3ncccc3F)cc21 (stereo not shown) [Example 890, 4-amino-N-((3-fluoropyridin-2-yl)methyl)-3-methyl-N-((5-(trifluoromethyl)pyridin-2-yl)methyl)-1,3-dihydrofuro[3,4-c]quinoline-8-carboxamide] |  | 
73 nM | 1900 nM | CC1OCc2c1c(N)nc1ccc(C(=O)N(Cc3ccc(C#N)cn3)C(C)C3CCOCC3)cc21 (stereo not shown) [Example 892, 4-amino-N-((5-cyanopyridin-2-yl)methyl)-3-methyl-N-(1-(tetrahydro-2H-pyran-4-yl)ethyl)-1,3-dihydrofuro[3,4-c]quinoline-8-carboxamide] |  | 
51 nM | 550 nM | CC1OCc2c1c(N)nc1ccc(C(=O)N(Cc3ccc(C(F)(F)F)cn3)CC3CCOCC3)cc21 (stereo not shown) [Example 895, 4-amino-3-methyl-N-((tetrahydro-2H-pyran-4-yl)methyl)-N-((5-(trifluoromethyl)pyridin-2-yl)methyl)-1,3-dihydrofuro[3,4-c]quinoline-8-carboxamide] |  | 
88 nM | 1800 nM | CC1OCc2c1c(N)nc1ccc(C(=O)N(Cc3ccc(C#N)cn3)CC3CCOCC3)cc21 (stereo not shown) [Example 896, 4-amino-N-((5-cyanopyridin-2-yl)methyl)-3-methyl-N-((tetrahydro-2H-pyran-4-yl)methyl)-1,3-dihydrofuro[3,4-c]quinoline-8-carboxamide] |  | 
24 nM | 110 nM | CC1OCc2c1c(N)nc1ccc(C(=O)N(Cc3ccc(C(F)(F)F)cn3)C3CCCC3C#N)cc21 (stereo not shown) [Example 897, 4-amino-N-(2-cyanocyclopentyl)-3-methyl-N-((5-(trifluoromethyl)pyridin-2-yl)methyl)-1,3-dihydrofuro[3,4-c]quinoline-8-carboxamide] |  | 
52 nM | 290 nM | CC1OCc2c1c(N)nc1ccc(C(=O)N(Cc3ccc(C#N)cn3)C3CCCC3C#N)cc21 (stereo not shown) [Example 898, 4-amino-N-(2-cyanocyclopentyl)-N-((5-cyanopyridin-2-yl)methyl)-3-methyl-1,3-dihydrofuro[3,4-c]quinoline-8-carboxamide] |  | 
